The subject of the test is muscle protein kinetics. Briefly: Protein kinetics in muscle of rabbits infused with amino acid mixtures (surgical stress model). The conditions noted are these: rabbit, infusion, means ± SEM. It is filed as in vivo, New Zealand white rabbits. As for the experimental part:
To investigate the optimal mixture of free amino acids for stimulating net muscle protein synthesis a series of studies in New Zealand white rabbits weighing about 4.5 kg was performed. Net muscle protein balance was quantified by a technique analogous to the one used for human studies as described in Biolo et al, J Parent Enteral Nutr 16:305-315, 1992, which is hereby incorporated by reference, except that leg blood flow was measured by flow probe. This animal model is designed to represent a stress model induced by the surgical procedures needed to collect the samples and therefore is considered to be a good model for a seriously-ill […] patient. Different amino acid mixtures were infused into the rabbits, and the response of muscle quantified.
The groups were as follows:
AA group: A balanced AA solution (10% TRAVASOL®) containing all amino acids (27.3 umol·kg^−1·min^−1)
EAA group: Only essential amino acids (27.3 umol·kg^−1·min^−1)
Leu (25%)+AA group: Leucine was added to the balanced AA solution to account for 25% of total nitrogen and infused at the same total nitrogen group as others (27.3 umol·kg^−1·min^−1)
Leu (35%)+AA group: Same as above, except Leu comprised 35% of total
Leu only: Leucine only at 8.3 umol·kg·min

In the case of `CC(C)C[C@H](N)C(=O)O` [Leu alone, Leucine], the “Protein kinetics in muscle: Breakdown” value came out at 9.2 ± 0.5 µmol/kg/min. Moreover, under “*p<0.05 vs control”, the “Protein kinetics in muscle: Net balance” value was -2.6 ± 0.3 µmol/kg/min and the “Protein kinetics in muscle: Synthesis” value came to 6.6 ± 0.7 µmol/kg/min.
